In patent US7319109B2, “Farnesoid X receptor agonists” (Smith Kline Beecham Corporation, priority 2002, dated 2008):

Biological target: T1, Human FXRα Ligand Binding Domain (FXRα LBD) (Homo sapiens, UniProt Q96RI1)
T1 construct: polyhistidine (N); made in house; host or cells: E. coli BL21 (DE3), pRSET-A vector
T1 sequence (Q96RI1 222-472 isoform Q96RI1-2): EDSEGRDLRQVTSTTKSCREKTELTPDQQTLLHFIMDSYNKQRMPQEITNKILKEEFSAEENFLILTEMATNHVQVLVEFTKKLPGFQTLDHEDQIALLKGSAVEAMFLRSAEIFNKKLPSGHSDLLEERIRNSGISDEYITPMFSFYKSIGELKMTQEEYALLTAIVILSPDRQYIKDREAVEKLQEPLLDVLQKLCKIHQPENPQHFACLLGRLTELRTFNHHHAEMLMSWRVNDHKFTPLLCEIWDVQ
Test: FXR Affinity Binding Assay: ligand mediated cofactor peptide (SRC-1 LCD2, 676-700) interaction, time resolved fluorescence
Conditions: FXRα LBD-APC / europium labeled SRC-1 peptide, TRF signal, at least 2 hours at room temperature; read-out: Activity (pEC50) (converted)
Method: Determination of a ligand mediated cofactor peptide interaction to quantify ligand binding to the nuclear receptor Farnasoid X Receptor (FXR). The method measures the ability of putative ligands to modulate the interaction between the purified bacterial expressed FXRα (LBD) and a synthetic biotinylated peptide based on residues 676-700 of SRC-1(LCD2, 676-700). […] Detection of the associated complex is measured by time resolved fluorescence (TRF). The purified LBD of FXR is labeled with biotin then mixed with stoichiometric amounts of APC labeled streptavidin (Molecular Probes). The biotinylated peptide is then mixed with a ½ stoichiometric amount of europium labeled streptavidin (Wallac Inc). Each is then blocked with a 5 fold excess of biotin and allowed to equilibrate for 15 min. Equimolar amounts of receptor and peptide are mixed together and allowed to equilibrate for at least 30 min prior to the addition to either a variable or constant concentrations of the sample for which the affinity is to be determined. After equilibration, the time-resolved fluorescent signal is quantitated using a fluorescent plate reader. The affinity of the test compound is estimated from a plot of fluorescence versus concentration of test compound added.
Ligands that promote the complex formation induce a concentration-dependent increase in time-resolved fluorescent signal.
Human FXRα Ligand Binding Domain (FXRα LBD) was expressed in E.coli strain BL21 (DE3) as an amino-terminal polyhistidine tagged fusion protein. Expression was under the control of an IPTG inducible T7 promoter. DNA encoding this recombinant protein was subcloned into the pRSET-A expression vector (Invitrogen). The coding sequence of Human FXRα LBD was derived from Genbank accession number U 68233 (amino acids 222 to 472).
Routinely, 30-40 g cell paste (equivalent to 2-3 liters of the fermentation batch) was resuspended in 200-250 mL TBS, pH 7.2 (25mM Tris, 150 mM NaCl). Cells were lysed by passing 3 times through a French Press and cell debris was removed by centrifugation (30 minutes, 20,000 g, 4° C.). The cleared supernatant was filtered through course pre-filters, and TBS, pH 7.2, containing 500 mM imidazole was added to obtain a final imidazole concentration of 50 mM. This lysate was loaded onto a column (6×8 cm) packed with Sepharose [Ni^++ charged]Chelation resin (Pharmacia) and pre-equilibrated with TBS pH 7.21 50 mM imidazole. After washing to baseline absorbance with equilibration buffer, the column was washed with one column volume of TBS pH 7.2 containing 90 mM imidazole. FXRαLBD was eluted directly with 365 mM imidazole. Column fractions were pooled and dialyzed against TBS, pH 7.2, containing 0.5 mM EDTA and 5 mM DTT. The dialyzed protein sample was concentrated using Centri-prep 10 K (Amicon) and subjected to size exclusion, using a column (3×90 cm) packed with Sepharose S-75 resin (Pharmacia) pre-equilibrated with TBS, pH 7.2, containing 0.5 mM EDTA and 5 mM DTT.
Purified FXRα LBD was desalted/buffer exchanged using PD-10 gel filtration columns into PBS [100 mM NaPhosphate, pH 7.2, 150 mM NaCl]. FXRα LBD was diluted to approximately 10 μM in PBS and five-fold molar excess of NHS-LC-Biotin (Pierce) was added in a minimal volume of PBS. This solution was incubated with gentle mixing for 30 minutes at room temperature. The biotinylation modification reaction was stopped by the addition of 2000× molar excess of Tris-HCl, pH 8. The modified FXRα LBD was dialyzed against 4 buffer changes, each of at least 50 volumes, PBS containing 5 mM DTT, 2 mM EDTA and 2% sucrose.

Row | EC50 | SMILES
1 | < 100 nM | Cc1cc(OCc2c(-c3c(Cl)cccc3Cl)noc2C(C)C)ccc1N(C)Cc1cccc(CO)c1 [Example 11, {3-[(4-{[3-(2,6-Dichlorophenyl)-5-isopropyl-4-isoxazolyl]methoxy}-2-dimethylanilino)methyl]phenyl}methanol]
2 | < 100 nM | Cc1cc(OCc2c(-c3c(Cl)cccc3Cl)noc2C(C)C)ccc1N(C)Cc1ccc(CO)cc1 [Example 12, {4-[(4-{[3-(2,6-Dichlorophenyl)-5-isopropyl-4-isoxazolyl]methoxy}-2-dimethylanilino)methyl]phenyl}methanol]
3 | 102 to 1000 nM | CCc1onc(Cc2c(Cl)cccc2Cl)c1COc1ccc(N(C)Cc2cccc(C(=O)O)c2)c(C)c1 [Example 13, 3-[(4-{[3-(2,6-Dichlorobenzyl)-5-ethyl-4-isoxazolyl]methoxy}-2-dimethylanilino)methyl]benzoic acid]
4 | 102 to 1000 nM | Cc1cc(OCc2c(-c3c(Cl)cc(Cl)cc3Cl)noc2C(C)C)ccc1N(C)Cc1cccc(C(=O)O)c1 [Example 14, 3-{[(4-{[5-Isopropyl-3-(2,4,6-trichlorophenyl)isoxazol-4-yl]methoxy}-2-methylphenyl)-(methyl)amino]methyl}benzoic acid]
5 | 102 to 1000 nM | Cc1cc(OCc2c(Cc3c(Cl)cccc3Cl)noc2C(C)C)ccc1N(C)Cc1cccc(C(=O)O)c1 [Example 15, 3-[(4-{[3-(2,6-Dichlorobenzyl)-5-isopropyl-4-isoxazolyl]methoxy}-2-dimethylanilino)methyl]benzoic acid]
6 | 102 to 1000 nM | Cc1cc(OCc2c(Cc3ccccc3Cl)noc2C(C)C)ccc1N(C)Cc1cccc(C(=O)O)c1 [Example 16, 3-{[(4-{[3-(2-Chlorobenzyl)-5-isopropylisoxazol-4-yl]methoxy}-2-methylphenyl)(methyl)-amino]methyl}benzoic acid]
7 | 102 to 1000 nM | Cc1cc(OCc2c(Cc3c(Cl)cccc3Cl)noc2C2CC2)ccc1N(C)Cc1cccc(C(=O)O)c1 [Example 17, 3-[(4-{[5-Cyclopropyl-3-(2,6-dichlorobenzyl)-4-isoxazolyl]methoxy}-2-dimethylanilino)methyl]benzoic acid]
8 | < 100 nM | Cc1cc(OCc2c(-c3ccccc3OC(F)(F)F)noc2C(C)C)ccc1N(C)Cc1ccc(C(=O)O)o1 [Example 18, 5-{[4-({5-Isopropyl-3-[2-(trifluoromethoxy)phenyl]-4-isoxazolyl}methoxy)-2-dimethylanilino]methyl}-2-furoic acid]
9 | < 100 nM | Cc1cc(OCc2c(-c3ccccc3OC(F)(F)F)noc2C(C)C)ccc1N(C)Cc1ccc(C(=O)O)cc1 [Example 19, 4-{[4-({5-Isopropyl-3-[2-(trifluoromethoxy)phenyl]-4-isoxazolyl}methoxy)-2-dimethylanilino]methyl}benzoic acid]
10 | < 100 nM | Cc1cc(OCc2c(-c3ccccc3OC(F)(F)F)noc2C(C)C)ccc1N(C)Cc1cccc(C(=O)O)c1 [Example 20, 3-{[4-({5-Isopropyl-3-[2-(trifluoromethoxy)phenyl]-4-isoxazolyl}methoxy)-2-dimethylanilino]methyl}benzoic acid]
11 | < 100 nM | COC(=O)c1ccc(CN(C)c2ccc(OCc3c(-c4ccccc4OC(F)(F)F)noc3C(C)C)cc2C)o1 [Example 21, Methyl 5-{[4-({5-isopropyl-3-[2-(trifluoromethoxy)phenyl]-4-isoxazolyl}methoxy)-2-dimethylanilino]methyl}-2-furoate]
12 | 102 to 1000 nM | COC(=O)c1ccc(CN(C)c2ccc(OCc3c(-c4ccccc4OC(F)(F)F)noc3C(C)C)cc2C)cc1 [Example 22, Methyl 4-{[4-({5-isopropyl-3-[2-(trifluoromethoxy)phenyl]-4-isoxazolyl}methoxy)-2-dimethylanilino]methyl}benzoate]
13 | 102 to 1000 nM | CC(C)c1onc(-c2c(Cl)cccc2Cl)c1COc1ccc(NC(=O)c2ccc(C(=O)O)cc2)c(Cl)c1 [Example 23, 4-{[(2-Chloro-4-{[3-(2,6-dichlorophenyl)-5-isopropylisoxazol-4-yl]methoxy}phenyl)amino]carbonyl}benzoic acid]
14 | 102 to 1000 nM | COC(=O)c1cccc(C(=O)Nc2ccc(OCc3c(-c4c(Cl)cccc4Cl)noc3C(C)C)cc2Cl)c1 [Example 24, Methyl 3-[(2-chloro-4-{[3-(2,6-dichlorophenyl)-5-isopropyl-4-isoxazolyl]methoxy}anilino)carbonyl]benzoate]

More lines, now with the values behind:

Row | SMILES | EC50
15 | Cc1cc(OCc2c(-c3c(Cl)cccc3Cl)noc2C(C)C)ccc1N(C)Cc1cccc(C(=O)O)c1 [Example 1, 3-{[(4-{[3-(2,6-Dichlorophenyl)-5-isopropylisoxazol-4-yl]methoxy}-2-methylphenyl)(methyl)amino]methyl}benzoic acid] | < 100 nM
16 | COC(=O)c1ccc(CN(C)c2ccc(OCc3c(-c4c(Cl)cccc4Cl)noc3C(C)C)cc2C)cc1 [Example 2, Methyl 4-[(4-{[3-(2,6-dichlorophenyl)-5-isopropyl-4-isoxazolyl]methoxy}-2-dimethylanilino)methyl]benzoate] | < 100 nM
17 | CC(C)c1onc(-c2c(Cl)cccc2Cl)c1COc1ccc(NCc2cccc(C(=O)O)c2)c(Cl)c1 [Example 3, 3-{[(2-Chloro-4-{[3-(2,6-dichlorophenyl)-5-isopropylisoxazol-4-yl]methoxy}phenyl)amino]methyl}benzoic acid] | 102 to 1000 nM
18 | Cc1cc(OCc2c(-c3c(Cl)cccc3Cl)noc2C(C)C)ccc1N(C)Cc1ccc(C(=O)O)o1 [Example 4, 5-[(4-{[3-(2,6-Dichlorophenyl)-5-isopropyl-4-isoxazolyl]methoxy}-2-dimethylanilino)methyl]-2-furoic acid] | 102 to 1000 nM
19 | Cc1cc(OCc2c(-c3c(Cl)cccc3Cl)noc2C(C)C)ccc1N(C)Cc1ccc(C(=O)O)cc1 [Example 5, 4-[(4-{[3-(2,6-Dichlorophenyl)-5-isopropyl-4-isoxazolyl]methoxy}-2-dimethylanilino)methyl]benzoic acid] | < 100 nM
20 | COC(=O)c1ccoc1CN(C)c1ccc(OCc2c(-c3c(Cl)cccc3Cl)noc2C(C)C)cc1C [Example 6, Methyl 2-[(4-{[3-(2,6-dichlorophenyl)-5-isopropyl-4-isoxazolyl]methoxy}-2-dimethylanilino)methyl]-3-furoate] | 102 to 1000 nM
21 | Cc1cc(OCc2c(-c3c(Cl)cccc3Cl)noc2C(C)C)ccc1N(C)Cc1ccc2nonc2c1 [Example 7, N-(2,1,3-Benzoxadiazol-5-ylmethyl)-4-{[3-(2,6-dichlorophenyl)-5-isopropyl-4-isoxazolyl]methoxy}-N,2-dimethylaniline] | 102 to 1000 nM
22 | Cc1cc(OCc2c(-c3c(Cl)cccc3Cl)noc2C(C)C)ccc1N(C)Cc1ccc(-c2csnn2)cc1 [Example 8, N-(4-{[3-(2,6-Dichlorophenyl)-5-isopropyl-4-isoxazolyl]methoxy}-2-methylphenyl)-N-methyl-N-[4-(1,2,3-thiadiazol-4-yl)benzyl]amine] | 102 to 1000 nM
23 | Cc1cc(OCc2c(-c3c(Cl)cccc3Cl)noc2C(C)C)ccc1N(C)Cc1ccc(C#N)cc1 [Example 9, 4-[(4-{[3-(2,6-Dichlorophenyl)-5-isopropyl-4-isoxazolyl]methoxy}-2-dimethylanilino)methyl]benzonitrile] | 102 to 1000 nM
24 | Cc1cc(OCc2c(-c3c(Cl)cccc3Cl)noc2C(C)C)ccc1N(C)Cc1occc1C(=O)O [Example 10, 2-[(4-{[3-(2,6-Dichlorophenyl)-5-isopropyl-4-isoxazolyl]methoxy}-2-dimethylanilino)methyl]-3-furoic acid] | 102 to 1000 nM
